# According to publication doi:10.64898/2025.12.30.696991 (bioRxiv, 2026):
# Experiments:
# Experiment in all cases: Antibiotic disc inhibition zone on Mueller-Hinton agar
# Conditions in all cases: experiment performed twice
# [1] = system: Susc. S. Typhimurium (ATCC700720); type: cell-based, Salmonella enterica serovar Typhimurium
# Procedure: (§1) Susceptible (ATCC 700720) and MDR (ATCC 700408) strains of S. enterica serovar Typhimurium were obtained from American Type Culture Collection (ATCC Manassas, VA) and cultured in nutrient broth (BD Difco, Detroit, MA). Murine macrophage cell line RAW 264.7 (ATCC TIB-71) was maintained in Dulbecco's modified Eagle's medium (DMEM) (GIBCO, Invitrogen, Carlsbad, CA) supplemented with 10% fetal bovine serum (FBS) (GIBCO) and 1% penicillin-streptomycin (P/S) (GIBCO). Cells were cultured at 37°C in a 5% CO2 atmosphere and used up to passage 10 once received from ATCC.
# [2] = system: MDR S. Typhimurium (ATCC700408); type: cell-based, Salmonella enterica serovar Typhimurium
# Procedure: as §1
# [3] = system: E. coli (TOP10); type: cell-based, Escherichia coli
# Procedure: as §1, with “ATCC. Susceptible and MDR activity of S. Typhimurium was confirmed on Mueller-Hinton agar (BD Difco, Detroit, MA) plates with antibiotic discs (Thermo Fisher Scientific, Waltham, MA) and compared to Escherichia coli (TOP10) and S. Typhimurium XEN-33 (Table 3).” for “ATCC.”
# [4] = system: S. Typhimurium (XEN-33); type: cell-based, Salmonella enterica serovar Typhimurium
Compound,Disc inhibition zone (diameter) [1] [mm],Disc inhibition zone (diameter) [2] [mm],Disc inhibition zone (diameter) [3] [mm],Disc inhibition zone (diameter) [4] [mm]
CC1(C)S[C@@H]2[C@H](NC(=O)[C@H](N)c3ccccc3)C(=O)N2[C@H]1C(=O)O [Ampicillin],19,0,17,18
CO/N=C(\C(=O)N[C@@H]1C(=O)N2C(C(=O)O)=C(CSc3nc(=O)c(O)nn3C)CS[C@H]12)c1csc(N)n1 [Ceftriaxo],26,28,30,26
O=C(N[C@H](CO)[C@H](O)c1ccc([N+](=O)[O-])cc1)C(Cl)Cl [Chloramphenicol],24,0,28,24
O=C(O)c1cn(C2CC2)c2cc(N3CCNCC3)c(F)cc2c1=O [Ciprofloxacin],30,30,37,25
CNC(C)C1CCC(N)C(OC2C(N)CC(N)C(OC3OCC(C)(O)C(NC)C3O)C2O)O1 (centres unmarked) [Gentamicin],17,18,17,18
NC[C@H]1O[C@H](O[C@H]2[C@H](O)[C@@H](O[C@H]3O[C@H](CO)[C@@H](O)[C@H](N)[C@H]3O)[C@H](N)C[C@@H]2N)[C@H](O)[C@@H](O)[C@@H]1O [Kanamycin],17,17,20,0
C[C@H]1COc2c(N3CCN(C)CC3)c(F)cc3c(=O)c(C(=O)O)cn1c23 [Levofloxacin],32,32,34,27
CCn1cc(C(=O)O)c(=O)c2ccc(C)nc21 [Nalidixic Acid],21,21,30,20
[H]/N=C(/N)N[C@H]1[C@H](O)[C@@H](O)[C@H](O[C@@H]2O[C@@H](C)[C@](O)(C=O)[C@H]2O[C@@H]2O[C@@H](CO)[C@H](O)[C@@H](O)[C@@H]2NC)[C@@H](N/C(N)=N\[H])[C@@H]1O [Streptomycin],12,0,0,13
CN(C)[C@@H]1C(O)=C(C(N)=O)C(=O)[C@@]2(O)C(O)=C3C(=O)c4c(O)cccc4[C@@](C)(O)[C@H]3C[C@@H]12 [Tetracycline],22,13,24,0
Cotrimoxazole,25,24,29,0
